Biological target: T1, EBP (Homo sapiens, UniProt Q15125)
T1 construct: HEK293T cells were utilized as the source of EBP enzyme; endogenous in cells; host or cells: HEK293T
Assay: EBP Functional Assay (EBP immunoaffinity LC-MS assay)
Assay type: biochemical
Settings: EBP enzyme from HEK293T cells; 30 min with inhibitor, then zymosterol-d5, 37° C., 4 h; percent conversion to dehydrolathosterol-d5 by LC-APCI MRM MS
Summary of the method: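 IC50 comes from a 4-parameter logistic fit of zymosterol-d5-to-product percent conversion, measured by LC-APCI MRM MS after sterol extraction. Compounds were preincubated 30 min with EBP from HEK293T cells before deuterated substrate was added for 4 h at 37° C; Tasin-1 served as reference.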

T1 sequence (Q15125 whole entry): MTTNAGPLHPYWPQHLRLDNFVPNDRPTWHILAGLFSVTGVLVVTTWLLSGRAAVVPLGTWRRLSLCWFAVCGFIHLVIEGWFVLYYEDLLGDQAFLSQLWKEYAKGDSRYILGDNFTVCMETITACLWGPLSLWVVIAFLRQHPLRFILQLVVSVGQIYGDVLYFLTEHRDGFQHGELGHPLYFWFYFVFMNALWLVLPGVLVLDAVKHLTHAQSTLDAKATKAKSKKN

Row | IC50 | SMILES
1 | 250 to 4000 nM | Cc1nc(C(C)(F)F)ccc1S(=O)(=O)N1CC2(CN(C(C)C3CCOCC3)C2)C1 (centres unmarked) [Example 82]
2 | 100 to 250 nM | Cc1nc(C(C)(F)F)ccc1S(=O)(=O)N1CC2(CN(CC3(C)CCOCC3)C2)C1 [Example 83]
3 | 250 to 4000 nM | Cc1nc(C(C)(F)F)ccc1S(=O)(=O)N1CC2(CN(C3CCOC3)C2)C1 (centres unmarked) [Example 84]
4 | < 100 nM | Cc1nc(C(C)(F)F)ccc1S(=O)(=O)N1CC2(CN(CC3CCOC3)C2)C1 (centres unmarked) [Example 85]
5 | < 100 nM | Cc1nc(C(C)(F)F)ccc1S(=O)(=O)N1CC2(CN(C(C)C3CCOC3)C2)C1 (centres unmarked) [Example 86]
6 | < 100 nM | Cc1nc(C(C)(F)F)ccc1S(=O)(=O)N1CC2(CN(CC3COC3)C2)C1 [Example 87]
7 | 100 to 250 nM | Cc1nc(C(C)(F)F)ccc1S(=O)(=O)N1CC2(CN(C(C)C3COC3)C2)C1 (centres unmarked) [Example 88]
8 | < 100 nM | Cc1nc(C(C)(F)F)ccc1S(=O)(=O)N1CC2(CN(CC3(C)COC3)C2)C1 [Example 89]
9 | 100 to 250 nM | Cc1nc(C(F)F)ccc1S(=O)(=O)N1CC2(CN(C3CCOCC3)C2)C1 [Example 90, 2-((6-(difluoromethyl)-2-methylpyridin-3-yl)sulfonyl)-6-(tetrahydro-2H-pyran-4-yl)-2,6-diazaspiro[3.3]heptane]
10 | 250 to 4000 nM | Cc1nc(C(F)F)ccc1S(=O)(=O)N1CC2(CN(C3CC4(COC4)C3)C2)C1 [Example 91, 2-((6-(difluoromethyl)-2-methylpyridin-3-yl)sulfonyl)-6-(2-oxaspiro[3.3]heptan-6-yl)-2,6-diazaspiro[3.3]heptane]
11 | < 100 nM | Cc1nc(C(C)(C)F)ccc1S(=O)(=O)N1CC2(CN(C3CC4(COC4)C3)C2)C1 [Example 92, 2-((6-(2-fluoropropan-2-yl)-2-methylpyridin-3-yl)sulfonyl)-6-(2-oxaspiro[3.3]heptan-6-yl)-2,6-diazaspiro[3.3]heptane]
12 | < 100 nM | Cc1nc(C(C)(C)F)ccc1S(=O)(=O)N1CC2(CN(C3CCOCC3)C2)C1 [Example 93, 2-((6-(2-fluoropropan-2-yl)-2-methylpyridin-3-yl)sulfonyl)-6-(tetrahydro-2H-pyran-4-yl)-2,6-diazaspiro[3.3]heptane]
13 | < 100 nM | Cc1nc(OC(F)F)ccc1S(=O)(=O)N1CC2(CN(C3CCOCC3)C2)C1 [Example 94, 2-((6-(difluoromethoxy)-2-methylpyridin-3-yl)sulfonyl)-6-(tetrahydro-2H-pyran-4-yl)-2,6-diazaspiro[3.3]heptane]
14 | 100 to 250 nM | Cc1nc(OC(F)F)ccc1S(=O)(=O)N1CC2(CN(C3CC4(COC4)C3)C2)C1 [Example 95, 2-((6-(difluoromethoxy)-2-methylpyridin-3-yl)sulfonyl)-6-(2-oxaspiro[3.3]heptan-6-yl)-2,6-diazaspiro[3.3]heptane]
15 | 100 to 250 nM | Cn1nc(C(F)F)cc1S(=O)(=O)N1CC2(CN(C3CCOCC3)C2)C1 [Example 96, 2-((3-(difluoromethyl)-1-methyl-1H-pyrazol-5-yl)sulfonyl)-6-(tetrahydro-2H-pyran-4-yl)-2,6-diazaspiro[3.3]heptane]
16 | 250 to 4000 nM | COc1cc(S(=O)(=O)N2CC3(CN(C4CCOCC4)C3)C2)n(C)n1 [Example 97, 2-((3-methoxy-1-methyl-1H-pyrazol-5-yl)sulfonyl)-6-(tetrahydro-2H-pyran-4-yl)-2,6-diazaspiro[3.3]heptane]
17 | < 100 nM | COc1ccc(S(=O)(=O)N2CC3(CN(C4CCOCC4)C3)C2)c(Cl)n1 [Example 98, 2-((2-chloro-6-methoxypyridin-3-yl)sulfonyl)-6-(tetrahydro-2H-pyran-4-yl)-2,6-diazaspiro[3.3]heptane]
18 | < 100 nM | COc1ncc(Cl)cc1S(=O)(=O)N1CC2(CN(C3CCOCC3)C2)C1 [Example 99, 2-((5-chloro-2-methoxypyridin-3-yl)sulfonyl)-6-(tetrahydro-2H-pyran-4-yl)-2,6-diazaspiro[3.3]heptane]
19 | < 100 nM | Cc1cc(C(F)(F)F)nc(C)c1S(=O)(=O)N1CC2(CN(C3CCOCC3)C2)C1 [Example 100, 2-((2,4-dimethyl-6-(trifluoromethyl)pyridin-3-yl)sulfonyl)-6-(tetrahydro-2H-pyran-4-yl)-2,6-diazaspiro[3.3]heptane]
20 | 100 to 250 nM | Cc1cc(C(F)(F)F)nc(C)c1S(=O)(=O)N1CC2(CN(C3CC4(COC4)C3)C2)C1 [Example 101, 2-((2,4-dimethyl-6-(trifluoromethyl)pyridin-3-yl)sulfonyl)-6-(2-oxaspiro[3.3]heptan-6-yl)-2,6-diazaspiro[3.3]heptane]
21 | < 100 nM | Cc1cc(C(F)(F)F)nc(C)c1S(=O)(=O)N1CC2(CN(CC3CCOCC3)C2)C1 [Example 102]
22 | 100 to 250 nM | Cc1cc(C(F)(F)F)nc(C)c1S(=O)(=O)N1CC2(CN(CC3COC3)C2)C1 [Example 104]

Row | IC50 | SMILES
23 | 100 to 250 nM | Cc1ccc(S(=O)(=O)N2CC3(CN(C4CCOCC4)C3)C2)c(C(F)(F)F)n1 [Example 105, 2-((6-methyl-2-(trifluoromethyl)pyridin-3-yl)sulfonyl)-6-(tetrahydro-2H-pyran-4-yl)-2,6-diazaspiro[3.3]heptane]
24 | 100 to 250 nM | Cc1ccc(S(=O)(=O)N2CC3(CN(CC4CCOCC4)C3)C2)c(C(F)(F)F)n1 [Example 106, 2-((6-methyl-2-(trifluoromethyl)pyridin-3-yl)sulfonyl)-6-((tetrahydro-2H-pyran-4-yl)methyl)-2,6-diazaspiro[3.3]heptane]
25 | < 100 nM | O=S(=O)(c1ccc(C2CC2)nc1C(F)(F)F)N1CC2(CN(C3CCOCC3)C2)C1 [Example 107, 2-((6-cyclopropyl-2-(trifluoromethyl)pyridin-3-yl)sulfonyl)-6-(tetrahydro-2H-pyran-4-yl)-2,6-diazaspiro[3.3]heptane]
26 | < 100 nM | O=S(=O)(c1ccc(C2CC2)nc1C(F)(F)F)N1CC2(CN(CC3CCOCC3)C2)C1 [Example 108, 2-((6-cyclopropyl-2-(trifluoromethyl)pyridin-3-yl)sulfonyl)-6-((tetrahydro-2H-pyran-4-yl)methyl)-2,6-diazaspiro[3.3]heptane]
27 | 250 to 4000 nM | O=S(=O)(c1ccc(C(F)(F)F)nc1C(F)(F)F)N1CC2(CN(C3CCOCC3)C2)C1 [Example 109, 2-((2,6-bis(trifluoromethyl)pyridin-3-yl)sulfonyl)-6-(tetrahydro-2H-pyran-4-yl)-2,6-diazaspiro[3.3]heptane]
28 | 250 to 4000 nM | O=S(=O)(c1ccc(C(F)(F)F)nc1C(F)(F)F)N1CC2(CN(C3CC4(COC4)C3)C2)C1 [Example 110]
29 | < 100 nM | O=S(=O)(c1ccc(C(F)(F)F)nc1C(F)(F)F)N1CC2(CN(CC3CCOCC3)C2)C1 [Example 111]
30 | 250 to 4000 nM | O=S(=O)(c1ccc(C(F)(F)F)nc1C(F)(F)F)N1CC2(CN(CC3COC3)C2)C1 [Example 112]
31 | 100 to 250 nM | Cc1nc(C(F)(F)F)ccc1S(=O)(=O)N1CC2(CN(CC3CC4(COC4)C3)C2)C1 [Example 113]
32 | < 100 nM | Cc1nc(C(C)(F)F)ccc1S(=O)(=O)N1CC2(CN(CC3CC4(COC4)C3)C2)C1 [Example 114]
33 | < 100 nM | Cn1nc(C(F)(F)F)cc1S(=O)(=O)N1CC2(CN(CC3CC4(COC4)C3)C2)C1 [Example 115]
34 | < 100 nM | O=S(=O)(c1ccc(C(F)F)nc1C1CC1)N1CC2(CN(C3CCOCC3)C2)C1 [Example 116, 2-((2-cyclopropyl-6-(difluoromethyl)pyridin-3-yl)sulfonyl)-6-(tetrahydro-2H-pyran-4-yl)-2,6-diazaspiro[3.3]heptane]
35 | 100 to 250 nM | O=S(=O)(c1ccc(C(F)F)nc1C1CC1)N1CC2(CN(C3CC4(COC4)C3)C2)C1 [Example 119, 2-((2-cyclopropyl-6-(difluoromethyl)pyridin-3-yl)sulfonyl)-6-(2-oxaspiro[3.3]heptan-6-yl)-2,6-diazaspiro[3.3]heptane]
36 | 100 to 250 nM | O=S(=O)(c1cc(C(F)F)nn1C1CC1)N1CC2(CN(C3CCOCC3)C2)C1 [Example 120, 2-((1-cyclopropyl-3-(difluoromethyl)-1H-pyrazol-5-yl)sulfonyl)-6-(tetrahydro-2H-pyran-4-yl)-2,6-diazaspiro[3.3]heptane]
37 | 250 to 4000 nM | O=S(=O)(c1cnc(C(F)(F)F)cc1C1CC1)N1CC2(CN(C3CC4(COC4)C3)C2)C1 [Example 121, 2-((4-cyclopropyl-6-(trifluoromethyl)pyridin-3-yl)sulfonyl)-6-(2-oxaspiro[3.3]heptan-6-yl)-2,6-diazaspiro[3.3]heptane]
38 | < 100 nM | O=S(=O)(c1cnc(C(F)(F)F)cc1C1CC1)N1CC2(CN(CC3CCOCC3)C2)C1 [Example 122, 2-((4-cyclopropyl-6-(trifluoromethyl)pyridin-3-yl)sulfonyl)-6-((tetrahydro-2H-pyran-4-yl)methyl)-2,6-diazaspiro[3.3]heptane]
39 | 250 to 4000 nM | CCc1cc(C(F)(F)F)ncc1S(=O)(=O)N1CC2(CN(C3CC4(COC4)C3)C2)C1 [Example 125, 2-((4-ethyl-6-(trifluoromethyl)pyridin-3-yl)sulfonyl)-6-(2-oxaspiro[3.3]heptan-6-yl)-2,6-diazaspiro[3.3]heptane]
40 | 250 to 4000 nM | CCc1cc(C(F)(F)F)ncc1S(=O)(=O)N1CC2(CN(CC3CCOCC3)C2)C1 [Example 126, 2-((4-ethyl-6-(trifluoromethyl)pyridin-3-yl)sulfonyl)-6-((tetrahydro-2H-pyran-4-yl)methyl)-2,6-diazaspiro[3.3]heptane]
41 | < 100 nM | Cc1nc(C(F)(F)F)ccc1S(=O)(=O)N1CC2(CN(CC3(C)CCOCC3)C2)C1 [Example 129, 2-((2-methyl-6-(trifluoromethyl)pyridin-3-yl)sulfonyl)-6-((4-methyltetrahydro-2H-pyran-4-yl)methyl)-2,6-diazaspiro[3.3]heptane]
42 | 100 to 250 nM | Cc1nc(C(F)(F)F)ccc1S(=O)(=O)N1CC2(CN(C(C)C3(C)CCOCC3)C2)C1 (centres unmarked) [Example 131]
43 | 100 to 250 nM | Cc1nc(C(F)(F)F)ccc1S(=O)(=O)N1CC2(CN(C(C)C3(C)COC3)C2)C1 (centres unmarked) [Example 132]
44 | 250 to 4000 nM | Cc1nc(C(F)(F)F)ccc1S(=O)(=O)N1CC2(CN(CC3CCOC3)C2)C1 (centres unmarked) [Example 133]

Source: patent US20250171463A1 (BIOGEN MA INC., priority 2022, published 2025)
